Reference: ChEMBL document CHEMBL1687838, “The in vitro contribution of autolysins to bacterial killing elicited by amoxicillin increases with inoculum size in Enterococcus faecalis” (2011)
In brackets after ≈: the same amount, converted by molar mass. Activity calls are given as the source filed them. The calls are words filed in the database; no cut-off is given here.

Assays:
[1] = test system: Enterococcus faecalis; assay: Antibacterial activity against Enterococcus faecalis JH2-2 harboring deletion at AltA, AltB and AltC gene assessed as induction of membrane permeabilization at 2 ug/ml after 3 hrs by propidium iodide and Syto9 staining based confocal microscopic analysis; assay type: functional, organism-based
[2] = test system: Enterococcus faecalis; assay: Bactericidal activity against 5 X 10^8 CFU/ml Enterococcus faecalis JH2-2 at 2 ug/ml after 24 hrs by time kill analysis; assay type: functional
[3] = test system: Enterococcus faecalis; assay: Bactericidal activity against 5 X 10^8 CFU/ml Enterococcus faecalis JH2-2 harboring deletion at AltA, AltB and AltC gene at 2 ug/ml after 3 hrs by time kill analysis; assay type: functional
[4] = test system: Enterococcus faecalis; assay: Bactericidal activity against 5 X 10^8 CFU/ml Enterococcus faecalis JH2-2 at 2 ug/ml after 3 hrs by time kill analysis; assay type: functional
[5] = test system: Enterococcus faecalis; assay: Antibacterial activity against Enterococcus faecalis JH2-2 assessed as induction of membrane permeabilization at 2 ug/ml after 3 hrs by propidium iodide and Syto9 staining based confocal microscopic analysis; assay type: functional, organism-based
[6] = test system: Enterococcus faecalis; assay: (§1) Bactericidal activity against 5 X 10^8 CFU/ml Enterococcus faecalis JH2-2 infected in rabbit assessed as bacterial load per gram of vegetation at 50 mg/kg, im administered three times a day starting 48 hrs post-infection measured after 24 hrs by time kill analysis (reference value: 9.29+- 0.83 log10 CFU/g); assay type: functional; conditions: route intramuscular
[7] = test system: Enterococcus faecalis; assay: Bactericidal activity against 5 X 10^8 CFU/ml Enterococcus faecalis JH2-2 harboring deletion at AltA, AltB and AltC gene at 2 ug/ml after 6 hrs by time kill analysis; assay type: functional
[8] = test system: Enterococcus faecalis; assay: Bactericidal activity against 5 X 10^6 CFU/ml Enterococcus faecalis JH2-2 harboring deletion at AltA, AltB and AltC gene at 2 ug/ml after 3 hrs by time kill analysis; assay type: functional
[9] = test system: Enterococcus faecalis; assay: as §1, with “JH2-2 harboring deletion at AltA, AltB and AltC gene” for “JH2-2”, “8.69+- 1.19” for “9.29+- 0.83”; assay type: functional; conditions: route intramuscular
[10] = test system: Enterococcus faecalis; assay: Antibacterial activity against Enterococcus faecalis JH2-2 harboring deletion at AltA, AltB and AltC gene by CLSI method; assay type: functional
[11] = test system: Enterococcus faecalis; assay: Bactericidal activity against 5 X 10^6 CFU/ml Enterococcus faecalis JH2-2 harboring deletion at AltA, AltB and AltC gene at 2 ug/ml after 6 hrs by time kill analysis; assay type: functional
[12] = test system: Enterococcus faecalis; assay: Bactericidal activity against 5 X 10^8 CFU/ml Enterococcus faecalis JH2-2 harboring deletion at AltA, AltB and AltC gene at 2 ug/ml after 24 hrs by time kill analysis; assay type: functional
[13] = test system: Enterococcus faecalis; assay: Bactericidal activity against 5 X 10^6 CFU/ml Enterococcus faecalis JH2-2 harboring deletion at AltA, AltB and AltC gene at 2 ug/ml after 24 hrs by time kill analysis; assay type: functional
[14] = test system: Enterococcus faecalis; assay: Bactericidal activity against 5 X 10^6 CFU/ml Enterococcus faecalis JH2-2 at 2 ug/ml after 3 hrs by time kill analysis; assay type: functional
[15] = test system: Enterococcus faecalis; assay: Bactericidal activity against 5 X 10^8 CFU/ml Enterococcus faecalis JH2-2 at 2 ug/ml after 6 hrs by time kill analysis; assay type: functional
[16] = test system: Enterococcus faecalis; assay: Antibacterial activity against Enterococcus faecalis JH2-2 by CLSI method; assay type: functional
[17] = test system: Enterococcus faecalis; assay: Bactericidal activity against 5 X 10^6 CFU/ml Enterococcus faecalis JH2-2 at 2 ug/ml after 6 hrs by time kill analysis; assay type: functional
[18] = test system: Enterococcus faecalis; assay: Bactericidal activity against 5 X 10^6 CFU/ml Enterococcus faecalis JH2-2 at 2 ug/ml after 24 hrs by time kill analysis; assay type: functional

CC1(C)S[C@@H]2[C@H](NC(=O)[C@H](N)c3ccc(O)cc3)C(=O)N2[C@H]1C(=O)O [AMOXICILLIN]
Activity [1]: Active
log10CFU/ml [2]: 1.1
log10CFU/ml [3]: 2.83
log10CFU/ml [4]: 1.73
Activity [5]: Active
log10CFU/g [6]: 7.69
log10CFU/ml [7]: 0.79
log10CFU/ml [8]: 3.15
log10CFU/g [9]: 7.5
MIC [10]: 0.5 µg/mL (≈ 1.37 µM)
log10CFU/ml [11]: 1.45
log10CFU/ml [12]: 2.46
log10CFU/ml [13]: 4.44
log10CFU/ml [14]: 2.07
log10CFU/ml [15]: 4.59
MIC [16]: 0.5 µg/mL (≈ 1.37 µM)
log10CFU/ml [17]: 4.86
log10CFU/ml [18]: 2.48
